# Laboratory results published in ChEMBL document CHEMBL3885881, “DrugMatrix”.
# Organism: Rattus norvegicus
# Type: toxicity, organism-based, Sprague-Dawley
# Conditions: in vivo, po, route oral GAVAGE, […]; for ABSOLUTE EOSINOPHIL / ABSOLUTE LYMPHOCYTE / ABSOLUTE MONOCYTE / ABSOLUTE SEGMENTED NEUTROPHIL / BASOPHIL / EOSINOPHIL / ERYTHROCYTE COUNT / HEMATOCRIT / HEMOGLOBIN / LEUKOCYTE COUNT / LYMPHOCYTE / MEAN CORPUSCULAR HEMOGLOBIN / MEAN CORPUSCULAR HEMOGLOBIN CONCENTRATION / MEAN CORPUSCULAR VOLUME / MONOCYTE / NEUTROPHIL / NUCLEATED RED BLOOD CELLS / PLATELET COUNT: tissue Blood; for ALANINE AMINOTRANSFERASE / ALBUMIN / ALKALINE PHOSPHATASE / ASPARTATE AMINOTRANSFERASE / BLOOD UREA NITROGEN / CARBON DIOXIDE / CHLORIDE / CHOLESTEROL / CREATINE PHOSPHOKINASE / CREATININE / GLUCOSE / LACTATE DEHYDROGENASE / LIPASE / PHOSPHORUS / POTASSIUM / SODIUM / TOTAL BILIRUBIN / TOTAL PROTEIN / URIC ACID: tissue Plasma
# [1] = 0 mg/kg, 6 h, vehicle control, dose level Control, time 0.25 day
# [2] = 0 mg/kg, 24 h, vehicle control, dose level Control, time 1 day
# [3] = 100 mg/kg, 6 h, dose level Low, time 0.25 day
# [4] = 100 mg/kg, 24 h, dose level Low, time 1 day
# Description: DrugMatrix - Regimen: Single
compound,measurement,setting,value
CC(C)(Oc1ccc(CCNC(=O)c2ccc(Cl)cc2)cc1)C(=O)O [BEZAFIBRATE],ABSOLUTE EOSINOPHIL,[1],0 CELLS/uL
same,ABSOLUTE LYMPHOCYTE,[1],8631 CELLS/uL
same,ABSOLUTE MONOCYTE,[1],171.17 CELLS/uL
same,ABSOLUTE SEGMENTED NEUTROPHIL,[1],1214.5 CELLS/uL
same,BASOPHIL,[1],0%
same,EOSINOPHIL,[1],0%
same,ERYTHROCYTE COUNT,[1],5.42 x10E6/uL
same,HEMATOCRIT,[1],34.7%
same,HEMOGLOBIN,[1],13.67 G/DL
same,LEUKOCYTE COUNT,[1],10.02 x10E3/uL
same,LYMPHOCYTE,[1],86.17%
same,MEAN CORPUSCULAR HEMOGLOBIN,[1],25.27 pg
same,MEAN CORPUSCULAR HEMOGLOBIN CONCENTRATION,[1],39.42 G/DL
same,MEAN CORPUSCULAR VOLUME,[1],64.12 fL
same,MONOCYTE,[1],1.67%
same,NEUTROPHIL,[1],12.17%
same,NUCLEATED RED BLOOD CELLS,[1],0 /100WBC
same,PLATELET COUNT,[1],1050 x10E3/uL
same,ALANINE AMINOTRANSFERASE,[1],61 u/L
same,ALBUMIN,[1],4.67 G/DL
same,ALKALINE PHOSPHATASE,[1],312.5 u/L
same,ASPARTATE AMINOTRANSFERASE,[1],117.5 u/L
same,BLOOD UREA NITROGEN,[1],8.67 mg/dL
same,CARBON DIOXIDE,[1],26.33 mmol/L
same,CHLORIDE,[1],100.5 MEQ/L
same,CHOLESTEROL,[1],72 mg/dL
same,CREATINE PHOSPHOKINASE,[1],283.33 u/L
same,CREATININE,[1],0.28 mg/dL
same,GLUCOSE,[1],172 mg/dL
same,LACTATE DEHYDROGENASE,[1],95.33 u/L
same,LIPASE,[1],10.17 u/L
same,PHOSPHORUS,[1],9.9 mg/dL
same,POTASSIUM,[1],5.75 MEQ/L
same,SODIUM,[1],142.4 MEQ/L
same,TOTAL BILIRUBIN,[1],0.3 mg/dL
same,TOTAL PROTEIN,[1],5.43 G/DL
same,URIC ACID,[1],0.73 mg/dL
same,ABSOLUTE EOSINOPHIL,[2],90.83 CELLS/uL
same,ABSOLUTE LYMPHOCYTE,[2],14725.17 CELLS/uL
same,ABSOLUTE MONOCYTE,[2],220 CELLS/uL
same,ABSOLUTE SEGMENTED NEUTROPHIL,[2],1080.67 CELLS/uL
same,BASOPHIL,[2],0%
same,EOSINOPHIL,[2],0.67%
same,ERYTHROCYTE COUNT,[2],5.3 x10E6/uL
same,HEMATOCRIT,[2],33.4%
same,HEMOGLOBIN,[2],13.4 G/DL
same,LEUKOCYTE COUNT,[2],16.12 x10E3/uL
same,LYMPHOCYTE,[2],91.17%
same,MEAN CORPUSCULAR HEMOGLOBIN,[2],25.3 pg
same,MEAN CORPUSCULAR HEMOGLOBIN CONCENTRATION,[2],40.12 G/DL
same,MEAN CORPUSCULAR VOLUME,[2],63.05 fL
same,MONOCYTE,[2],1.5%
same,NEUTROPHIL,[2],6.67%
same,NUCLEATED RED BLOOD CELLS,[2],0 /100WBC
same,PLATELET COUNT,[2],1062 x10E3/uL
same,ALANINE AMINOTRANSFERASE,[2],69 u/L
same,ALBUMIN,[2],4.33 G/DL
same,ALKALINE PHOSPHATASE,[2],269 u/L
same,ASPARTATE AMINOTRANSFERASE,[2],83.67 u/L
same,BLOOD UREA NITROGEN,[2],14 mg/dL
same,CARBON DIOXIDE,[2],29 mmol/L
same,CHLORIDE,[2],100.83 MEQ/L
same,CHOLESTEROL,[2],66.67 mg/dL
same,CREATINE PHOSPHOKINASE,[2],355 u/L
same,CREATININE,[2],0.18 mg/dL
same,GLUCOSE,[2],161.33 mg/dL
same,LACTATE DEHYDROGENASE,[2],123.33 u/L
same,LIPASE,[2],10.67 u/L
same,PHOSPHORUS,[2],8.83 mg/dL
same,POTASSIUM,[2],6.06 MEQ/L
same,SODIUM,[2],142.45 MEQ/L
same,TOTAL BILIRUBIN,[2],0.2 mg/dL
same,TOTAL PROTEIN,[2],5.72 G/DL
same,URIC ACID,[2],1.27 mg/dL
same,ABSOLUTE EOSINOPHIL,[3],94.83 CELLS/uL
same,ABSOLUTE LYMPHOCYTE,[3],14637.67 CELLS/uL
same,ABSOLUTE MONOCYTE,[3],333.5 CELLS/uL
same,ABSOLUTE SEGMENTED NEUTROPHIL,[3],1884 CELLS/uL
same,BASOPHIL,[3],0%
same,EOSINOPHIL,[3],0.5%
same,ERYTHROCYTE COUNT,[3],5.71 x10E6/uL
same,HEMATOCRIT,[3],36.27%
same,HEMOGLOBIN,[3],14.22 G/DL
same,LEUKOCYTE COUNT,[3],16.95 x10E3/uL
same,LYMPHOCYTE,[3],86.67%
same,MEAN CORPUSCULAR HEMOGLOBIN,[3],24.97 pg
same,MEAN CORPUSCULAR HEMOGLOBIN CONCENTRATION,[3],39.22 G/DL
same,MEAN CORPUSCULAR VOLUME,[3],63.68 fL
same,MONOCYTE,[3],2%
same,NEUTROPHIL,[3],10.83%
same,NUCLEATED RED BLOOD CELLS,[3],0 /100WBC
same,PLATELET COUNT,[3],1045.83 x10E3/uL
same,ALANINE AMINOTRANSFERASE,[3],67.33 u/L
same,ALBUMIN,[3],4.53 G/DL
same,ALKALINE PHOSPHATASE,[3],339 u/L
same,ASPARTATE AMINOTRANSFERASE,[3],90 u/L
same,BLOOD UREA NITROGEN,[3],8.17 mg/dL
same,CARBON DIOXIDE,[3],18.33 mmol/L
same,CHLORIDE,[3],102.17 MEQ/L
same,CHOLESTEROL,[3],75.5 mg/dL
same,CREATINE PHOSPHOKINASE,[3],329.33 u/L
same,CREATININE,[3],0.19 mg/dL
same,GLUCOSE,[3],163 mg/dL
same,LACTATE DEHYDROGENASE,[3],253 u/L
same,LIPASE,[3],10.17 u/L
same,PHOSPHORUS,[3],12.57 mg/dL
same,POTASSIUM,[3],5.78 MEQ/L
same,SODIUM,[3],143.17 MEQ/L
same,TOTAL BILIRUBIN,[3],0.32 mg/dL
same,TOTAL PROTEIN,[3],6.1 G/DL
same,URIC ACID,[3],1.68 mg/dL
same,ABSOLUTE EOSINOPHIL,[4],44 CELLS/uL
same,ABSOLUTE LYMPHOCYTE,[4],13234.17 CELLS/uL
same,ABSOLUTE MONOCYTE,[4],357.67 CELLS/uL
same,ABSOLUTE SEGMENTED NEUTROPHIL,[4],1847.5 CELLS/uL
same,BASOPHIL,[4],0%
same,EOSINOPHIL,[4],0.33%
same,ERYTHROCYTE COUNT,[4],5.35 x10E6/uL
same,HEMATOCRIT,[4],34.67%
same,HEMOGLOBIN,[4],13.47 G/DL
same,LEUKOCYTE COUNT,[4],15.48 x10E3/uL
same,LYMPHOCYTE,[4],85%
same,MEAN CORPUSCULAR HEMOGLOBIN,[4],25.28 pg
same,MEAN CORPUSCULAR HEMOGLOBIN CONCENTRATION,[4],38.95 G/DL
same,MEAN CORPUSCULAR VOLUME,[4],64.9 fL
same,MONOCYTE,[4],2.33%
same,NEUTROPHIL,[4],12.33%
same,NUCLEATED RED BLOOD CELLS,[4],0.17 /100WBC
same,PLATELET COUNT,[4],977.33 x10E3/uL
same,ALANINE AMINOTRANSFERASE,[4],83.17 u/L
same,ALBUMIN,[4],4.5 G/DL
same,ALKALINE PHOSPHATASE,[4],333 u/L
same,ASPARTATE AMINOTRANSFERASE,[4],86.33 u/L
same,BLOOD UREA NITROGEN,[4],13 mg/dL
same,CARBON DIOXIDE,[4],28.83 mmol/L
same,CHLORIDE,[4],101.67 MEQ/L
same,CHOLESTEROL,[4],43.5 mg/dL
same,CREATINE PHOSPHOKINASE,[4],192.33 u/L
same,CREATININE,[4],0.21 mg/dL
same,GLUCOSE,[4],143.33 mg/dL
same,LACTATE DEHYDROGENASE,[4],106.5 u/L
same,LIPASE,[4],10.17 u/L
same,PHOSPHORUS,[4],9.88 mg/dL
same,POTASSIUM,[4],6.29 MEQ/L
same,SODIUM,[4],146.55 MEQ/L
same,TOTAL BILIRUBIN,[4],0.17 mg/dL
same,TOTAL PROTEIN,[4],5.77 G/DL
same,URIC ACID,[4],1.02 mg/dL
